Experimental data reported in ChEMBL document CHEMBL5137093, “Improving Drug Delivery While Tailoring Prodrug Activation to Modulate Cmax and Cmin by Optimization of (Carbonyl)oxyalkyl Linker-Based Prodrugs of Atazanavir” (J Med Chem, 2022).

Tests used:
[1] = Ratio of Cmax/Cmin of Atazanavir in Sprague-Dawley rat at 30 ml/kg,po measured after 24 hrs by UPLC-MS/MS analysis; type: ADME; conditions: in vivo
[2] = Cmax in Sprague-Dawley rat at 3 ml/kg,po measured upto 24 hrs by UPLC-MS/MS analysis; type: ADME; set-up: dose 3 ml/kg, time < 24 hrs, route po; conditions: Sprague-Dawley, in vivo, 3 ml/kg
[3] = Ratio of AUC of Atazanavir in Sprague-Dawley rat at 1 ml/kg,iv measured upto 24 hrs by UPLC-MS/MS analysis; type: ADME; conditions: in vivo
[4] = AUClast in Sprague-Dawley rat at 30 ml/kg,po measured upto 24 hrs by UPLC-MS/MS analysis; type: ADME; set-up: time < 24 hrs, dose 30 ml/kg, route po; conditions: in vivo
[5] = Relative Cmax ratio of Atazanavir in Sprague-Dawley rat at 3 ml/kg,po measured upto 24 hrs by UPLC-MS/MS analysis; type: ADME; conditions: in vivo
[6] = Tmax in Sprague-Dawley rat at 3 ml/kg,po measured upto 24 hrs by UPLC-MS/MS analysis; type: ADME; conditions: Sprague-Dawley, in vivo, read-out: Tmax
[7] = Clearance in Sprague-Dawley rat at 1 ml/kg,iv measured upto 24 hrs by UPLC-MS/MS analysis; type: ADME; conditions: in vivo
[8] = Relative AUC ratio of Atazanavir in Sprague-Dawley rat at 3 ml/kg,po measured upto 24 hrs by UPLC-MS/MS analysis; type: ADME; conditions: in vivo
[9] = Relative AUC ratio of Atazanavir in Sprague-Dawley rat at 1 ml/kg,iv measured upto 24 hrs by UPLC-MS/MS analysis; type: ADME; conditions: in vivo
[10] = Cmax in Sprague-Dawley rat at 1 ml/kg,iv measured upto 24 hrs by UPLC-MS/MS analysis; type: ADME; set-up: dose 1 ml/kg, time < 24 hrs, route iv; conditions: in vivo
[11] = Ratio of AUC of Atazanavir in Sprague-Dawley rat at 3 ml/kg,po measured upto 24 hrs by UPLC-MS/MS analysis; type: ADME; conditions: in vivo
[12] = Relative Cmax ratio of Atazanavir in Sprague-Dawley rat at 1 ml/kg,iv measured upto 24 hrs by UPLC-MS/MS analysis; type: ADME; conditions: in vivo
[13] = Tmax in Sprague-Dawley rat at 30 ml/kg,po measured upto 24 hrs by UPLC-MS/MS analysis; type: ADME; conditions: in vivo
[14] = Fold ratio of total AUC of Atazanavir in Sprague-Dawley rat at 1 ml/kg,iv measured upto 24 hrs by UPLC-MS/MS analysis; type: ADME; conditions: in vivo
[15] = Half life in Sprague-Dawley rat at 1 ml/kg,iv measured upto 24 hrs by UPLC-MS/MS analysis; type: ADME; conditions: in vivo
[16] = Volume of distribution at steady state in Sprague-Dawley rat at 1 ml/kg,iv measured upto 24 hrs by UPLC-MS/MS analysis; type: ADME; conditions: in vivo, read-out: Vdss
[17] = Ratio of Cmax/Cmin of Atazanavir in Sprague-Dawley rat at 1 ml/kg,iv measured after 24 hrs by UPLC-MS/MS analysis; type: ADME; conditions: in vivo
[18] = Aqueous stability of the compound in acetate buffer at pH 4 assessed as compound half life measured after 24 hrs by UPLC analysis; type: physicochemical; conditions: buffer, pH 4, 24 h, 24 h
[19] = Aqueous stability of the compound in phosphate buffer at pH 6.5 assessed as compound half life measured after 24 hrs by UPLC analysis; type: physicochemical; conditions: buffer, pH 6.5, 24 h, 24 h
[20] = Relative AUC ratio of Atazanavir in Sprague-Dawley rat at 30 ml/kg,po measured upto 24 hrs by UPLC-MS/MS analysis; type: ADME; conditions: in vivo
[21] = Aqueous solubility of compound at pH 4 by UPLC analysis; type: physicochemical; conditions: buffer
[22] = Relative Cmax ratio of Atazanavir in Sprague-Dawley rat at 30 ml/kg,po measured upto 24 hrs by UPLC-MS/MS analysis; type: ADME; conditions: in vivo
[23] = AUClast in Sprague-Dawley rat at 3 ml/kg,po measured upto 24 hrs by UPLC-MS/MS analysis; type: ADME; set-up: time < 24 hrs, dose 3 ml/kg, route po; conditions: Sprague-Dawley, in vivo, 3 ml/kg
[24] = AUClast in Sprague-Dawley rat at 1 ml/kg,iv measured upto 24 hrs by UPLC-MS/MS analysis; type: ADME; set-up: dose 1 ml/kg, time < 24 hrs, route iv; conditions: in vivo
[25] = Ratio of AUC of Atazanavir in Sprague-Dawley rat at 30 ml/kg,po measured upto 24 hrs by UPLC-MS/MS analysis; type: ADME; conditions: in vivo
[26] = Aqueous solubility of compound at pH 1 by UPLC analysis; type: physicochemical; conditions: buffer
[27] = Cmax in Sprague-Dawley rat at 30 ml/kg,po measured upto 24 hrs by UPLC-MS/MS analysis; type: ADME; set-up: time < 24 hrs, dose 30 ml/kg, route po; conditions: in vivo
[28] = Fold ratio of total AUC of Atazanavir in Sprague-Dawley rat at 30 ml/kg,po measured upto 24 hrs by UPLC-MS/MS analysis; type: ADME; conditions: in vivo
[29] = Ratio of Cmax/Cmin of Atazanavir in Sprague-Dawley rat at 3 ml/kg,po measured after 24 hrs by UPLC-MS/MS analysis; type: ADME; conditions: in vivo
[30] = Fold ratio of total AUC of Atazanavir in Sprague-Dawley rat at 3 ml/kg,po measured upto 24 hrs by UPLC-MS/MS analysis; type: ADME; conditions: in vivo

Ratio [1]: 5.8
Cmax [2]: 3.06 µM
Ratio [3]: 7.31
AUC(0-t) at 24 h [4]: 68.3 µM·h
Ratio [5]: 1
Tmax [6]: 3 h
clearance [7]: 2 mL/min/kg
Ratio [8]: 7.3
Ratio [9]: 2.3
Cmax [10]: 2.18 µM
Ratio [11]: 14.4
Ratio [12]: 0.11
Tmax [13]: 3 h
Ratio [14]: 18.8
half-life [15]: 7 h
Vd [16]: 1 L/kg
Ratio [17]: 22.8
t1/2 [18]: 334.3 h
t1/2 [19]: 9.2 h
Ratio [20]: 0.29
solubility [21]: > 1300 µg/mL
Ratio [22]: 0.08
AUC(0-t) at 24 h [23]: 40.1 µM·h
AUC(0-t) at 24 h [24]: 10.5 µM·h
Ratio [25]: 11.46
solubility [26]: > 2000 µg/mL
Cmax [27]: 4.13 µM
Ratio [28]: 3.56
Ratio [29]: 6.4
Ratio [30]: 111.7
SMILES: COC(=O)N[C@H](C(=O)N[C@@H](Cc1ccccc1)[C@H](CN(Cc1ccc(-c2ccccn2)cc1)NC(=O)[C@@H](NC(=O)OC)C(C)(C)C)OC(=O)OC(OC(=O)[C@@H](NC(=O)[C@H](N)C(C)C)C(C)C)C(C)C)C(C)(C)C (stereo in doubt; 6h)
